# In PMC10165273, “Itch receptor MRGPRX4 interacts with the receptor activity–modifying proteins” (The Journal of Biological Chemistry, 2023):
# Several values for one entry are separate records, joined by “and”; a condition that tells them apart may be missing. Equal values may be shown once. Read-outs that look alike come from different tables or passages of the source.
# Molecular target: T1, MRGPRX4 (Homo sapiens, UniProt Q96LA9)
# T1 construct: expressed in transfected cells; host or cells: HEK293T
# Test: IP1 accumulation HTRF assay, MRGPRX4
# Type: cell-based
# Set-up: key to IP1 Basal / IP1 accumulation with YM (Figure 1c) / response to agonist, MRGPRX4 / IP1 accumulation: % IP1: unstimulated mock-transfected = 0%, fully stimulated MRGPRX4 = 100%
# Settings: for activation at 100 µM / activation at 20 µM / activation at 4 µM / activation at 0.8 µM / activation at […] / activation at 0.032 µM: 2 h, read-out: IP1 accumulation (normalized); for activation at 100 µM: log [nateglinide] (M) -4; for activation at 20 µM: log [nateglinide] (M) -4.69897; for activation at 4 µM: log [nateglinide] (M) -5.39794; for activation at 0.8 µM: log [nateglinide] (M) -6.09691; for activation at […]: log [nateglinide] (M) -6.79588; for activation at 0.032 µM: log [nateglinide] (M) -7.49485; for normalized IP1 accumulation: HA-MRGX4-1D4
# [1] = Dox 40 ng/mL, Supplementary Figure 5b
# [2] = Dox 40 ng/mL, Supplementary Figure 5c
# [3] = Dox 1100 ng/mL, Supplementary Figure 5a
# [4] = Dox 1100 ng/mL, Supplementary Figure 5b
# [5] = Dox 1100 ng/mL, Supplementary Figure 5c
# [6] = Dox 3300 ng/mL, Supplementary Figure 5a
# [7] = Dox 3300 ng/mL, Supplementary Figure 5b
# [8] = Dox 3300 ng/mL, Supplementary Figure 5c
# [9] = MRGPRX4 (2pg), Dox 3300ng/mL, Supplementary Figure 5b
# [10] = MRGPRX4, Supplementary Figure 5d-g
# [11] = Dox 13 ng/mL, Supplementary Figure 5a
# [12] = Dox 13 ng/mL, Supplementary Figure 5c
# [13] = Dox 40 ng/mL, Supplementary Figure 5a
# T1 sequence (Q96LA9 whole entry): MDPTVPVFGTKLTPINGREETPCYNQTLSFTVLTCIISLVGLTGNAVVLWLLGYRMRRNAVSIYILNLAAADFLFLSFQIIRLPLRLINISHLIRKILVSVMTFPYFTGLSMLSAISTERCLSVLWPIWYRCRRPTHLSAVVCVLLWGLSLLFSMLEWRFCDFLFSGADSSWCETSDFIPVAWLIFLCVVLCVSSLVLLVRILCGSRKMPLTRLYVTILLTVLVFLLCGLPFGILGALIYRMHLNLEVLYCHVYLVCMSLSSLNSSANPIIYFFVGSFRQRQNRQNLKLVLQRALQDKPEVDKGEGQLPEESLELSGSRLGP
smiles,measurement,setting,value
CC(C)[C@H]1CC[C@H](C(=O)N[C@H](Cc2ccccc2)C(=O)O)CC1 [Nateglinide],activation at 100 µM,[1],17.6%
same,activation at 100 µM,[2],58%
same,activation at 100 µM,[3],97.1%
same,activation at 100 µM,[4],25.8%
same,activation at 100 µM,[5],81.1%
same,activation at 100 µM,[6],100%
same,activation at 100 µM,[7],32.5%
same,activation at 100 µM,[8],100%
same,activation at 100 µM,[9],100%
same,activation at 100 µM,[10],100%
same,activation at 100 µM,"MRGPRX4 no dox, Supplementary Figure 5d-g",1.03%
same,activation at 100 µM,"No Dox, Supplementary Figure 5a",17%
same,activation at 100 µM,"No Dox, Supplementary Figure 5c",17%
same,activation at 20 µM,[11],62.9%
same,activation at 20 µM,"Dox 13 ng/mL, Supplementary Figure 5b",6.04%
same,activation at 20 µM,[12],25.4%
same,activation at 20 µM,[13],71.8%
same,activation at 20 µM,[1],8.95%
same,activation at 20 µM,[2],33.6%
same,activation at 20 µM,[3],83.3%
same,activation at 20 µM,[4],17.4%
same,activation at 20 µM,[5],57.5%
same,activation at 20 µM,[6],86.8%
same,activation at 20 µM,[7],23.5%
same,activation at 20 µM,[8],74.7%
same,activation at 20 µM,[9],86.8%
same,activation at 20 µM,[10],96.1%
same,activation at 4 µM,[11],29.5%
same,activation at 4 µM,[12],4.86%
same,activation at 4 µM,[13],32.9%
same,activation at 4 µM,[2],7.47%
same,activation at 4 µM,[3],46.5%
same,activation at 4 µM,[4],4.19%
same,activation at 4 µM,[5],20.2%
same,activation at 4 µM,[6],44%
same,activation at 4 µM,[7],8.69%
same,activation at 4 µM,[8],32.8%
same,activation at 4 µM,[9],44%
same,activation at 4 µM,[10],56.6%
same,activation at 0.8 µM,[11],10.1%
same,activation at 0.8 µM,[13],12.5%
same,activation at 0.8 µM,[3],19.7%
same,activation at 0.8 µM,[5],3.18%
same,activation at 0.8 µM,[6],19.9%
same,activation at 0.8 µM,[8],10.1%
same,activation at 0.8 µM,[9],19.9%
same,activation at 0.8 µM,[10],23.8%
same,activation at […],[11],5.08%
same,activation at […],[13],6.44%
same,activation at […],[3],11.5%
same,activation at […],[6],11.6%
same,activation at […],[8],7.74%
same,activation at […],[9],11.6%
same,activation at […],[10],11.3%
same,activation at 0.032 µM,[11],4.57%
same,activation at 0.032 µM,[13],5.36%
same,activation at 0.032 µM,[3],10.3%
same,activation at 0.032 µM,[6],10.9%
same,activation at 0.032 µM,[8],3.46%
same,activation at 0.032 µM,[9],10.9%
same,activation at 0.032 µM,[10],13.6%
same,efficacy,"Figure 4a bottom, MRGPRX4 alone (reference = 100), individual replicates",100
same,Emax,"Figure 4a bottom, MRGPRX4 alone (reference = 100), individual replicates, read-out: efficacy",100%
same,EC50,"Figure 4a top, MRGPRX4 alone (no RAMP), individual replicates, read-out: potency (converted)",7.29 µM and 10.3 µM and 7.1 µM
same,"response to agonist, MRGPRX4","Figure 4c-f, agonist 100µM, MRGPRX4 alone (reference = 100)",100
same,normalized IP1 accumulation,log [agonist] (M) -4,81.552 and 83.6202
same,normalized IP1 accumulation,log [agonist] (M) -4.69897,71.4189 and 62.4618
same,normalized IP1 accumulation,log [agonist] (M) -5.39794,34.1012 and 34.3253
same,normalized IP1 accumulation,log [agonist] (M) -6.09691,18.0339 and 19.9037
same,normalized IP1 accumulation,log [agonist] (M) -6.79588,15.3353 and 14.0745
same,normalized IP1 accumulation,log [agonist] (M) -7.49485,14.2615 and 16.0131
same,Emax,"HEK-293T, MRGPRX4 (Fig. 1A), HEK293T, normalized to 100 μM nateglinide, read-out: IP1 Emax",103%
same,Emax,"HEK-293T, MRGPRX4 (Fig. 1A), HEK293T, normalized to 100 μM nateglinide, read-out: IP1 span",87.6%
same,Emax,"MRGPRX4 0.125 pg DNA/cell, individual experiments, read-out: efficacy (Figure 1b bottom)",77.3%
same,EC50,"MRGPRX4 0.125 pg DNA/cell, individual experiments, read-out: potency (Figure 1b top) (converted)",15.9 µM and 12.3 µM and 12.6 µM
same,Emax,"MRGPRX4 0.25 pg DNA/cell, individual experiments, read-out: efficacy (Figure 1b bottom)",81.4%
